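Five compound concentrations were applied to cells in 96-well plates for 48 hours; endpoints were derived by simple linear interpolation of the resulting dose-response curve. GI50 = concentration required for 50% inhibition of growth.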 Active and inactive are the calls of the source. Cut-off read from the data, not from the text of the source: active = GI50 up to about 1.1 µM and inactive = higher.
Legend:
Assay in all cases: NCI-60 cell line screen, 48 h
OVCAR-3 = test system: OVCAR-3
UACC-257 = test system: UACC-257
HCC 2998 = test system: HCC 2998
NCI/ADR-RES = test system: NCI/ADR-RES
OVCAR-4 = test system: OVCAR-4
NCI-H226 = test system: NCI-H226
MDA-N = test system: MDA-N
CAKI-1 = test system: CAKI-1
LOX IMVI = test system: LOX IMVI
MCF7 = test system: MCF7
SNB-19 = test system: SNB-19
SF-268 = test system: SF-268
CCRF-CEM = test system: CCRF-CEM
BT-549 = test system: BT-549
TK-10 = test system: TK-10
MDA-MB-231 = test system: MDA-MB-231
Hs-578T = test system: Hs-578T
U-251 = test system: U-251
PC-3 = test system: PC-3
RPMI-8226 = test system: RPMI-8226
ACHN = test system: ACHN
A498 = test system: A498
EKVX = test system: EKVX
T47D = test system: T47D
KM12 = test system: KM12
NCI-H522 = test system: NCI-H522
HT-29 = test system: HT-29
COLO 205 = test system: COLO 205
NCI-H460 = test system: NCI-H460
M14 = test system: M14
OVCAR-5 = test system: OVCAR-5
MDA-MB-435 = test system: MDA-MB-435
HCT-15 = test system: HCT-15
SF-539 = test system: SF-539
HCT-116 = test system: HCT-116
SK-MEL-5 = test system: SK-MEL-5
SN12C = test system: SN12C
SK-OV-3 = test system: SK-OV-3
786-0 = test system: 786-0
OVCAR-8 = test system: OVCAR-8
Malme-3M = test system: Malme-3M
IGROV-1 = test system: IGROV-1
MOLT-4 = test system: MOLT-4
SK-MEL-28 = test system: SK-MEL-28
SNB-75 = test system: SNB-75
SR = test system: SR
K562 = test system: K562
A549 = test system: A549
UACC-62 = test system: UACC-62
DU-145 = test system: DU-145
RXF 393 = test system: RXF 393
UO-31 = test system: UO-31
NCI-H23 = test system: NCI-H23
SK-MEL-2 = test system: SK-MEL-2
SW-620 = test system: SW-620
HOP-92 = test system: HOP-92
HOP-62 = test system: HOP-62
SF-295 = test system: SF-295
HL-60 = test system: HL-60

Measured: GI50

COC1C(O)C(O[C@H]2CC[C@@]3(C)C(CC[C@@H]4[C@@H]3CC[C@]3(C)[C@@H](C(C)OC5OC(CO)C(O)C(O)C5O)CC[C@]43O)C2)OC(C)C1OC1OC(CO)C(O)C(O)C1O (some centres undefined)
inactive: OVCAR-3 > 100 µM | UACC-257 > 100 µM | HCC 2998 > 100 µM | NCI/ADR-RES > 100 µM | OVCAR-4 > 100 µM | NCI-H226 > 100 µM | MDA-N > 100 µM | CAKI-1 > 100 µM | LOX IMVI > 100 µM | MCF7 > 100 µM | SNB-19 > 100 µM | SF-268 > 100 µM | CCRF-CEM > 100 µM | BT-549 > 100 µM | TK-10 > 100 µM | MDA-MB-231 > 100 µM | Hs-578T > 100 µM | U-251 > 100 µM | PC-3 > 100 µM | RPMI-8226 > 100 µM | ACHN > 100 µM | A498 > 100 µM | EKVX > 100 µM | T47D > 100 µM | KM12 > 100 µM | NCI-H522 > 100 µM | HT-29 > 100 µM | COLO 205 > 100 µM | NCI-H460 > 100 µM | M14 > 100 µM | OVCAR-5 > 100 µM | MDA-MB-435 > 100 µM | SF-539 > 100 µM | HCT-116 > 100 µM | SK-MEL-5 > 100 µM | SN12C > 100 µM | SK-OV-3 > 100 µM | 786-0 > 100 µM | OVCAR-8 > 100 µM | Malme-3M > 100 µM | IGROV-1 > 100 µM | MOLT-4 > 100 µM | SK-MEL-28 > 100 µM | SNB-75 > 100 µM | SR > 100 µM | K562 > 100 µM | A549 > 100 µM | UACC-62 > 100 µM | DU-145 > 100 µM | RXF 393 > 100 µM | UO-31 > 100 µM | NCI-H23 > 100 µM | SK-MEL-2 > 100 µM | SW-620 > 100 µM | HOP-92 > 100 µM | HOP-62 > 100 µM | SF-295 > 100 µM
> 100 µM: HCT-15

CC1(C)OC2C(CO)OC(n3ccc(N)nc3=O)C2O1 (centres undefined)
inactive: OVCAR-3 > 100 µM | UACC-257 > 100 µM | HCC 2998 > 100 µM | NCI/ADR-RES > 100 µM | NCI-H226 > 100 µM | MDA-N > 100 µM | CAKI-1 > 100 µM | LOX IMVI > 100 µM | MCF7 > 100 µM | SNB-19 > 100 µM | SF-268 > 100 µM | CCRF-CEM > 100 µM | BT-549 > 100 µM | TK-10 > 100 µM | MDA-MB-231 > 100 µM | Hs-578T > 100 µM | U-251 > 100 µM | PC-3 > 100 µM | RPMI-8226 > 100 µM | ACHN > 100 µM | A498 21.5 µM | EKVX > 100 µM | T47D > 100 µM | KM12 > 100 µM | NCI-H522 > 100 µM | COLO 205 > 100 µM | NCI-H460 > 100 µM | M14 > 100 µM | OVCAR-5 > 100 µM | MDA-MB-435 > 100 µM | SF-539 > 100 µM | HCT-116 > 100 µM | SK-MEL-5 > 100 µM | SN12C > 100 µM | SK-OV-3 > 100 µM | 786-0 > 100 µM | OVCAR-8 > 100 µM | Malme-3M > 100 µM | IGROV-1 > 100 µM | MOLT-4 > 100 µM | HL-60 > 100 µM | SK-MEL-28 > 100 µM | SR > 100 µM | K562 > 100 µM | A549 > 100 µM | UACC-62 > 100 µM | DU-145 > 100 µM | RXF 393 > 100 µM | UO-31 > 100 µM | NCI-H23 > 100 µM | SK-MEL-2 > 100 µM | SW-620 > 100 µM | HOP-92 > 100 µM | HOP-62 > 100 µM | SF-295 > 100 µM
> 100 µM: HCT-15

Reference: ChEMBL document CHEMBL1201862, “PubChem BioAssay data set” (2004)
